Entries after “also recorded” stand apart in the source; their conditions may differ.
Legend:
SH-SY5Y cells = assay: LDH release assay; assay type: cell-based, human
Method: Aβ is known to be toxic toward neurons and neuronally derived cells (I. Benilova, et al., 2012, cited supra). To corroborate the toxicity of Aβ, we prepared oligomers of Aβ42 and studied their toxicity toward a human neuroblastoma cell line, SH-SY5Y. Aβ oligomers were prepared according to the procedure developed by Teplow and coworkers using recombinantly expressed Aβ42 pretreated with NH4OH (purchased from rPeptide) (D. B. Teplow, Methods Enzymol. 2006 413, 20-33; and Y. Fezoui, et al., Amyloid. 2000 7, 166-178; the disclosures of which are incorporated herein by reference). Under the conditions of the oligomer preparation, Aβ42 forms predominantly monomer, trimer, and tetramer as assessed by SDS-PAGE (FIG. 28A). It was also observed that bands migrated with molecular weights consistent with a pentamer and hexamer. SH-SY5Y cells were treated with varying concentrations of Aβ42, and toxicity was evaluated using a lactate dehydrogenase (LDH) release assay. Aβ42 increased LDH release in a dose-dependent manner at concentrations as low as 2.5 μM, corroborating the toxicity of Aβ42 (FIG. 28B).
It was hypothesized that trimers 3 and 4 may elicit toxicity similarly to Aβ42. The toxicities of trimers 3 and 4 towards SH-SY5Y cells were evaluated using an LDH assay, using deionized water (vehicle) and peptides 1 and 2 as controls. Trimer 4 increased LDH release in a dose-dependent manner at concentrations as low as 1.5 μM, indicating toxicity toward SH-SY5Y cells (FIG. 29A). LDH release was observed as early as 48 h after addition to the cells and reached a maximum after 72 h.
Many oligomers formed by full-length Aβ are toxic toward cells (I. Benilove, E. Karan, and B. De Strooper, Nat. Neurosci. 2012 15, 349-357; and M. E. Larson and S. E. Lesne J. Neurochem. 2012 120, 125-139; the disclosures of which are incorporated herein by reference). To test whether the oligomers formed by peptide 8 are also toxic, the toxicity of peptide 8 toward neuronally derived SH-SY5Y cells were evaluated using a lactate dehydrogenase (LDH) release assay. Peptide 8 and 10 were compared to investigate how the hexamer-forming Aβ16-36-derived peptide compares to a non-oligomerizing homologue. The toxicity of peptides 2 and 11 were also evaluated to better understand the relationship between oligomerization and toxicity.
The toxicities of peptides 1 and […], and trimers 3 and 4 toward SH-SY5Y cells were assessed by LDH release and caspase-3 activation assays. Cells were incubated in the presence or absence of equivalent concentrations of peptides 1 or 3, or trimers 3 and 4 for 72 h in 96-well plates. The LDH release assay was performed using the Pierce LDH Cytotoxicity Assay Kit from Thermo Scientific. The caspase-3 assay was performed using the Roche APO-One Homogeneous Caspase-3/7 Assay. Experiments were performed in replicates of five and an additional 10 wells were used for controls. Cells were cultured in the inner 60 wells (rows B-G, columns 2-11) of the 96-well plate. DMEM:F12 media (100 μL) was added to the outer wells (rows A and H, columns 1 and 12), in order to ensure the greatest reproducibility of data generated in the inner wells.
A 10 mg/mL stock solution of peptides 1 or […], or trimers 3 and 4 was prepared gravimetrically by dissolving 1 mg of each compound in 100 μL of deionized water that was either filtered through a 0.2 μm syringe filter or autoclaved. The stock solution was used to create 180 μM working solutions of peptides 1 or 3, or 60 μM working solutions of trimers 3 and 4 (these solutions contain equivalent concentrations of peptide). The 180 μM working solutions of peptides 1 and 2 were serially diluted with deionized water to create 90 μM working solutions of peptides 1 and 2. The 60 μM working solutions of trimers 3 and 4 were serially diluted with deionized water to create 30 μM, 15 μM, and 7.5 μM working solutions of trimers 3 and 4.
SH-SY5Y cells were plated in a 96-well plate at 30,000 cells per well. […]

[1] = Tricine SDS-PAGE with silver staining; assay type: physicochemical
Source text: Trimer 3 migrates as a single band at a molecular weight consistent with a hexamer. Trimer 4, in contrast, migrates as two distinct bands: a band consistent with the molecular weight of a dodecamer, and a band consistent with the molecular weight of a trimer.
Peptide 8 assembles to form a hexamer in SDS-PAGE. […] To further confirm the oligomerization state of […], it was compared to covalent trimers 3 and 4 (FIGS. 19A and 19B), which was previously determined to migrate respectively as 10.6 kDa hexamers and 21.2 kDa dodecamers in equilibrium with the 5.3 kDa trimers. Peptide 8 migrates at the same molecular weight as the hexamer band of trimer 3, providing further evidence that peptide 8 assembles to form a hexamer in SDS-PAGE.
The oligomerization of peptides 1 and 2 and trimers 3 and 4 was studied by Tricine SDS-PAGE.
Each peptide or trimer was dissolved in deionized water to a concentration of 10 mg/mL. An aliquot of the 10 mg/mL solutions was diluted with deionized water to create 2 mg/mL solutions of peptides 1 and 2, or 0.12 mg/mL solutions of trimers 3 and 4. The […] of peptides 1 and 2, as well as the 0.12 mg/mL solutions of trimers 3 and 4 were further diluted with 2×SDS-PAGE loading buffer (100 mM Tris buffer at pH 6.8, 20% (v/v) glycerol, and 4% SDS) to create 1 mg/mL working solutions of peptides 1 and 2, and 0.06 mg/mL working solutions of trimers 3 and 4. A 5 μL aliquot of each working solution was run on a 16% polyacrylamide gel with a 4% stacking polyacrylamide gel. The gels were run at a constant 60 volts at 4° C.
Staining with silver nitrate was used to visualize peptides 1 and 2 and trimers 3 and 4 in the SDS-PAGE gel. Briefly, the gel was removed from the casting glass and rocked in fixing solution (50% (v/v) methanol and 5% (v/v) acetic acid in deionized water) for 20 min. Next, the fixing solution was discarded and the gel was rocked in 50% (v/v) methanol for 10 min. Next, the 50% methanol was discarded and the gel was rocked in deionized water for 10 min. Next, the water was discarded and the gel was rocked in 0.02% (w/v) sodium thiosulfate in deionized water for 1 min. The sodium thiosulfate was discarded and the gel was rinsed with deionized water (2×). After the last rinse, the gel was submerged in chilled 0.1% (w/v) silver nitrate in deionized water and rocked at 4° C. for 20 min. Next, the silver nitrate solution was discarded and the gel was rinsed with deionized water (2×). To develop the gel, the gel was incubated in developing solution (2% w/v sodium carbonate, 0.04% formaldehyde until the desired intensity of staining was reached (˜1-3 min). When the desired intensity of staining was reached, the development was topped by discarding the developing solution and submerging the gel in 5% acetic acid.

[2] = size exclusion chromatography in Tris buffer; assay type: physicochemical
Source text: The elution profile of peptide 8 was compared to the size standards vitamin B12, aprotinin, and cytochrome c, as well as peptide 2. Peptide 8 elutes as a broad peak with three distinct humps (FIG. 41B). […] Peptide 2 elutes as two distinct peaks: a larger peak with an elution volume consistent with the molecular weight of a dimer, and a smaller peak with an elution volume consistent with the molecular weight of a trimer (FIG. 41B). […]

With “Aβ42: oligomers prepared from recombinantly expressed Aβ42 pretreated with NH4OH (purchased from rPeptide) [reference compound]” the “lowest concentration with increased LDH release / toxicity (concentrations as low as)” value (SH-SY5Y cells; SH-SY5Y cells) was 2.5 µM.
With “peptide 8: Aβ16-22 and Aβ30-36 β-strands linked by two δOrn turn units, N-methyl on Phe19, native Met35 (Seq. ID 33-34)” the “dose dependence of LDH release” value (SH-SY5Y cells; 50, 100 and 200 μM) was “No dose dependence”, the “LDH release / toxicity toward SH-SY5Y cells, in words” value (SH-SY5Y cells; SH-SY5Y cells) was “toxic” and the “lowest concentration with increased LDH release / toxicity (concentrations as low as)” value (SH-SY5Y cells; SH-SY5Y cells) was 50 µM. For the same substance, the “oligomer state by migration in SDS-PAGE” value [1] was “hexamer”, the oligomer size ([2]; SEC) was “monomer, dimer,; also recorded: trimer” and the “oligomer state consistent with SEC elution volume” value ([2]; absence of SDS) was “dimers and trimers; also recorded: monomer, dimer, and trimer”.
